# Measured values as given in patent publication EP0041644B1 (priority 1980, dated 1981).
# Key:
# [1] = test system: L1210 Leukemia; assay: L1210 Leukemia - Test 2; type: in vivo, mice
# [2] = test system: L1210 Leukemia; assay: L1210 Leukemia - Test 3 (vehicle comparison); type: in vivo, mice; details: Day 1 only, vehicle Saline
# [3] = test system: B16 Melanoma; assay: B16 Melanoma - Test 1 (ip tumor brei); type: in vivo, mice; details: for Av. Wt. Change, g Day 5 / Effect MST % T/C / MST Days / Survivors Day 5(60): QD 1→9, vehicle Saline
# [4] = test system: B16 Melanoma; assay: B16 Melanoma - Test 3 (sc trocar fragments); type: in vivo, mice
# [5] = test system: L-1210 Leukemia; assay: L-1210 Leukemia (Table VIII)
# Procedure: The sodium and ammonium salts of the present invention were tested against transplantable mouse tumors as indicated below. The methodology used generally followed the protocols of the National Cancer Institute (Cancer Chemotherapy Rep., Part 3, 3, 1-103 (1972). The essential experimental details are given at the bottom of the following tables.
structure (smiles),measurement,setting,value
"N.N.[Cl][Pt][Cl] [Cis-DDP, cis-diammine dichloroplatinum (II)]","Average Weight Change,g","[1]; 0.4 mg/kg/inj ip, qd 1→9",+1.6 g
same,Effect MST % T/C,"[1]; 0.4 mg/kg/inj ip, qd 1→9",100 % T/C
same,MST Days,"[1]; 0.4 mg/kg/inj ip, qd 1→9",7.0 days
same,Survivors Day 5(30),"[1]; 0.4 mg/kg/inj ip, qd 1→9",6/6
same,Average Weight Change,"[1]; 0.8 mg/kg/inj ip, qd 1→9",-0.7 g
same,Effect MST % T/C,"[1]; 0.8 mg/kg/inj ip, qd 1→9",107 % T/C
same,MST Days,"[1]; 0.8 mg/kg/inj ip, qd 1→9",7.5 days
same,Survivors Day 5(30),"[1]; 0.8 mg/kg/inj ip, qd 1→9",6/6
same,Average Weight Change,"[1]; 1.6 mg/kg/inj ip, qd 1→9",-2.2 g
same,Effect MST % T/C,"[1]; 1.6 mg/kg/inj ip, qd 1→9",157 % T/C
same,MST Days,"[1]; 1.6 mg/kg/inj ip, qd 1→9",11.0 days
same,Survivors Day 5(30),"[1]; 1.6 mg/kg/inj ip, qd 1→9",6/6
same,"Average Weight Change,g","[1]; 2 mg/kg/inj iv, d.1, 5 & 9",+1.7 g
same,Effect MST % T/C,"[1]; 2 mg/kg/inj iv, d.1, 5 & 9",100 % T/C
same,MST Days,"[1]; 2 mg/kg/inj iv, d.1, 5 & 9",7.0 days
same,Survivors Day 5(30),"[1]; 2 mg/kg/inj iv, d.1, 5 & 9",6/6
same,Average Weight Change,"[1]; 2.4 mg/kg/inj ip, qd 1→9",-3.3 g
same,Effect MST % T/C,"[1]; 2.4 mg/kg/inj ip, qd 1→9",214 % T/C
same,MST Days,"[1]; 2.4 mg/kg/inj ip, qd 1→9",15.0 days
same,Survivors Day 5(30),"[1]; 2.4 mg/kg/inj ip, qd 1→9",6/6
same,Average Weight Change,"[1]; 4 mg/kg/inj ip, d.1",-0.7 g
same,Effect MST % T/C,"[1]; 4 mg/kg/inj ip, d.1",136 % T/C
same,MST Days,"[1]; 4 mg/kg/inj ip, d.1",9.5 days
same,Survivors Day 5(30),"[1]; 4 mg/kg/inj ip, d.1",6/6
same,"Average Weight Change,g","[1]; 4 mg/kg/inj iv, d.1",+1.8 g
same,Effect MST % T/C,"[1]; 4 mg/kg/inj iv, d.1",100 % T/C
same,MST Days,"[1]; 4 mg/kg/inj iv, d.1",7.0 days
same,Survivors Day 5(30),"[1]; 4 mg/kg/inj iv, d.1",6/6
same,"Average Weight Change,g","[1]; 4 mg/kg/inj iv, d.1, 5 & 9",+0.8 g
same,Effect MST % T/C,"[1]; 4 mg/kg/inj iv, d.1, 5 & 9",100 % T/C
same,MST Days,"[1]; 4 mg/kg/inj iv, d.1, 5 & 9",7.0 days
same,Survivors Day 5(30),"[1]; 4 mg/kg/inj iv, d.1, 5 & 9",6/6
same,Average Weight Change,"[1]; 6 mg/kg/inj ip, d.1",-1.8 g
same,Effect MST % T/C,"[1]; 6 mg/kg/inj ip, d.1",171 % T/C
same,MST Days,"[1]; 6 mg/kg/inj ip, d.1",12.0 days
same,Survivors Day 5(30),"[1]; 6 mg/kg/inj ip, d.1",6/6
same,Average Weight Change,"[1]; 6 mg/kg/inj iv, d.1",-0.2 g
same,Effect MST % T/C,"[1]; 6 mg/kg/inj iv, d.1",114 % T/C
same,MST Days,"[1]; 6 mg/kg/inj iv, d.1",8.0 days
same,Survivors Day 5(30),"[1]; 6 mg/kg/inj iv, d.1",6/6
same,Average Weight Change,"[1]; 6 mg/kg/inj iv, d.1, 5 & 9",-1.1 g
same,Effect MST % T/C,"[1]; 6 mg/kg/inj iv, d.1, 5 & 9",164 % T/C
same,MST Days,"[1]; 6 mg/kg/inj iv, d.1, 5 & 9",11.5 days
same,Survivors Day 5(30),"[1]; 6 mg/kg/inj iv, d.1, 5 & 9",6/6
same,Average Weight Change,"[1]; 8 mg/kg/inj ip, d.1",-2.8 g
same,Effect MST % T/C,"[1]; 8 mg/kg/inj ip, d.1",186 % T/C
same,MST Days,"[1]; 8 mg/kg/inj ip, d.1",13.0 days
same,Survivors Day 5(30),"[1]; 8 mg/kg/inj ip, d.1",6/6
same,Average Weight Change,"[1]; 8 mg/kg/inj iv, d.1",-3.7 g
same,Effect MST % T/C,"[1]; 8 mg/kg/inj iv, d.1",129 % T/C
same,MST Days,"[1]; 8 mg/kg/inj iv, d.1",9.0 days
same,Survivors Day 5(30),"[1]; 8 mg/kg/inj iv, d.1",6/6
same,Average Weight Change,"[1]; 8 mg/kg/inj iv, d.1, 5 & 9",-2.1 g
same,Effect MST % T/C,"[1]; 8 mg/kg/inj iv, d.1, 5 & 9",179 % T/C
same,MST Days,"[1]; 8 mg/kg/inj iv, d.1, 5 & 9",12.5 days
same,Survivors Day 5(30),"[1]; 8 mg/kg/inj iv, d.1, 5 & 9",6/6
same,Average Weight Change,"[1]; 10 mg/kg/inj ip, d.1",-4.4 g
same,Effect MST % T/C,"[1]; 10 mg/kg/inj ip, d.1",214 % T/C
same,MST Days,"[1]; 10 mg/kg/inj ip, d.1",15.0 days
same,Survivors Day 5(30),"[1]; 10 mg/kg/inj ip, d.1",6/6
same,Average Weight Change,"[1]; 10 mg/kg/inj iv, d.1",-3.9 g
same,Effect MST % T/C,"[1]; 10 mg/kg/inj iv, d.1",143 % T/C
same,MST Days,"[1]; 10 mg/kg/inj iv, d.1",10.0 days
same,Survivors Day 5(30),"[1]; 10 mg/kg/inj iv, d.1",6/6
same,maximum T/C,"[1]; iv, multi-dose regimen",179%
same,maximum T/C,[1]; multi-dose therapy ip (qd 1→9),207-214%
same,maximum T/C,"[1]; single ip doses, ip L1210",214%
same,Average Weight Change,[2]; 4 mg/kg ip,−1.7
same,Effect MST % T/C,[2]; 4 mg/kg ip,143 % T/C
same,MST Days,[2]; 4 mg/kg ip,10.0 days
same,Survivors Day 5,[2]; 4 mg/kg ip,6/6
same,Average Weight Change,[2]; 6 mg/kg ip,−2.3
same,Effect MST % T/C,[2]; 6 mg/kg ip,143 % T/C
same,MST Days,[2]; 6 mg/kg ip,10.0 days
same,Survivors Day 5,[2]; 6 mg/kg ip,6/6
same,Average Weight Change,[2]; 8 mg/kg ip,−1.8
same,Effect MST % T/C,[2]; 8 mg/kg ip,150 % T/C
same,MST Days,[2]; 8 mg/kg ip,10.5 days
same,Survivors Day 5,[2]; 8 mg/kg ip,6/6
same,Average Weight Change,[2]; 10 mg/kg ip,−4.5
same,Effect MST % T/C,[2]; 10 mg/kg ip,150 % T/C
same,MST Days,[2]; 10 mg/kg ip,10.5 days
same,Survivors Day 5,[2]; 10 mg/kg ip,6/6
same,"Av. Wt. Change, g Day 5",[3]; 0.8 mg/kg/day ip,-1.0 g
same,Effect MST % T/C,[3]; 0.8 mg/kg/day ip,174 % T/C
same,MST Days,[3]; 0.8 mg/kg/day ip,34.0 days
same,"Av. Wt. Change, g Day 5",[3]; 1.6 mg/kg/day ip,-4.3 g
same,Effect MST % T/C,[3]; 1.6 mg/kg/day ip,36 % T/C
same,MST Days,[3]; 1.6 mg/kg/day ip,7.0 days
same,"Av. Wt. Change, g Day 5",[3]; 2.0 mg/kg/day ip,-4.5 g
same,Effect MST % T/C,[3]; 2.0 mg/kg/day ip,36 % T/C
same,MST Days,[3]; 2.0 mg/kg/day ip,7.0 days
same,Survivors Day 5(60),[3]; 0.8 mg/kg/day ip,10/10
same,Survivors Day 5(60),[3]; 1.6 mg/kg/day ip,9/9
same,Survivors Day 5(60),[3]; 2.0 mg/kg/day ip,8/10
same,mice cured,"[3]; ip B16, at the dose of maximum T/C",no cures
same,maximum T/C,"[3]; ip B16, ip QD 1→9",174%
same,Average Weight Change,"[4]; 0.8 mg/kg/inj ip, qd 1→9",-0.4 g
same,Effect MST %TC,"[4]; 0.8 mg/kg/inj ip, qd 1→9",113 %TC
same,MST Days,"[4]; 0.8 mg/kg/inj ip, qd 1→9",34.5 days
same,Average Weight Change,"[4]; 1.6 mg/kg/inj ip, qd 1→9",-2.4 g
same,Effect MST %TC,"[4]; 1.6 mg/kg/inj ip, qd 1→9",118 %TC
same,MST Days,"[4]; 1.6 mg/kg/inj ip, qd 1→9",36.0 days
same,Average Weight Change,"[4]; 2.4 mg/kg/inj ip, qd 1→9",-3.5 g
same,Effect MST %TC,"[4]; 2.4 mg/kg/inj ip, qd 1→9",97 %TC
same,MST Days,"[4]; 2.4 mg/kg/inj ip, qd 1→9",29.5 days
same,Average Weight Change,"[4]; 4 mg/kg/inj iv, d.1, 5 & 9",-0.6 g
same,Effect MST %TC,"[4]; 4 mg/kg/inj iv, d.1, 5 & 9",156 %TC
same,MST Days,"[4]; 4 mg/kg/inj iv, d.1, 5 & 9",47.5 days
same,Average Weight Change,"[4]; 6 mg/kg/inj iv, d.1, 5 & 9",-2.2 g
same,Effect MST %TC,"[4]; 6 mg/kg/inj iv, d.1, 5 & 9",131 %TC
same,MST Days,"[4]; 6 mg/kg/inj iv, d.1, 5 & 9",40.0 days
same,Average Weight Change,"[4]; 8 mg/kg/inj iv, d.1, 5 & 9",-2.8 g
same,Effect MST %TC,"[4]; 8 mg/kg/inj iv, d.1, 5 & 9",125 %TC
same,MST Days,"[4]; 8 mg/kg/inj iv, d.1, 5 & 9",38.0 days
same,Survivors Day 10 (60),"[4]; 8 mg/kg/inj iv, d.1, 5 & 9",9/10
same,T/C,"[4]; given ip, sc-implanted B16 melanoma",inactive
same,maximum T/C,"[4]; given iv, sc-implanted B16 melanoma",156%
same,"Average Weight Change,g","[5]; 0.4 mg/kg/inj ip, qd 1→9",+0.8 g
same,Effect MST % T/C,"[5]; 0.4 mg/kg/inj ip, qd 1→9",117 % T/C
same,MST Days,"[5]; 0.4 mg/kg/inj ip, qd 1→9",7.0 days
same,Survivors Day 5(30),"[5]; 0.4 mg/kg/inj ip, qd 1→9",6/6
same,"Average Weight Change,g","[5]; 0.8 mg/kg/inj ip, qd 1→9",-0.8 g
same,Effect MST % T/C,"[5]; 0.8 mg/kg/inj ip, qd 1→9",133 % T/C
same,MST Days,"[5]; 0.8 mg/kg/inj ip, qd 1→9",8.0 days
same,Survivors Day 5(30),"[5]; 0.8 mg/kg/inj ip, qd 1→9",6/6
same,"Average Weight Change,g","[5]; 1.6 mg/kg/inj ip, qd 1→9",-2.5 g
same,Effect MST % T/C,"[5]; 1.6 mg/kg/inj ip, qd 1→9",200 % T/C
same,MST Days,"[5]; 1.6 mg/kg/inj ip, qd 1→9",12.0 days
same,Survivors Day 5(30),"[5]; 1.6 mg/kg/inj ip, qd 1→9",6/6
same,"Average Weight Change,g","[5]; 2.4 mg/kg/inj ip, qd 1→9",-3.1 g
same,Effect MST % T/C,"[5]; 2.4 mg/kg/inj ip, qd 1→9",167 % T/C
same,MST Days,"[5]; 2.4 mg/kg/inj ip, qd 1→9",10.0 days
same,Survivors Day 5(30),"[5]; 2.4 mg/kg/inj ip, qd 1→9",6/6
same,"Average Weight Change,g","[5]; 4 mg/kg/inj ip, d.1",-1.5 g
same,Effect MST % T/C,"[5]; 4 mg/kg/inj ip, d.1",167 % T/C
same,MST Days,"[5]; 4 mg/kg/inj ip, d.1",10.0 days
same,Survivors Day 5(30),"[5]; 4 mg/kg/inj ip, d.1",6/6
same,"Average Weight Change,g","[5]; 6 mg/kg/inj ip, d.1",-3.7 g
same,Effect MST % T/C,"[5]; 6 mg/kg/inj ip, d.1",167 % T/C
same,MST Days,"[5]; 6 mg/kg/inj ip, d.1",10.0 days
same,Survivors Day 5(30),"[5]; 6 mg/kg/inj ip, d.1",6/6
same,"Average Weight Change,g","[5]; 8 mg/kg/inj ip, d.1",-2.8 g
same,Effect MST % T/C,"[5]; 8 mg/kg/inj ip, d.1",158 % T/C
same,MST Days,"[5]; 8 mg/kg/inj ip, d.1",9.5 days
same,Survivors Day 5(30),"[5]; 8 mg/kg/inj ip, d.1",6/6
same,"Average Weight Change,g","[5]; 10 mg/kg/inj ip, d.1",-2.0 g
same,Effect MST % T/C,"[5]; 10 mg/kg/inj ip, d.1",208 % T/C
same,MST Days,"[5]; 10 mg/kg/inj ip, d.1",12.5 days
same,Survivors Day 5(30),"[5]; 10 mg/kg/inj ip, d.1",6/6
same,maximum T/C,"[5]; qd 1→9, 1.6 mg/kg/inj",200%
same,maximum T/C,[5]; single ip injections,208%
same,optimal doses,"[5]; single ip injections, dose of maximum T/C",10 mg/kg
